# Values quoted from earlier work, collected in patent US20140079751A1, “METHOD OF USING COMPOSITE OF SILVER NANOPARTICLES AND NANOSILICATE PLATELETS TO INHIBIT GROWTH OF SILVER-RESISTANT BACTERIA” (priority 2010, published 2014).
# Test system: silver-resistant Escherichia coli (J53pMG101)
# Conditions: background statement, Escherichia coli strain J53 pMG101
substance,measurement,value
silver ions,silver ion concentration the strain can survive,more than 1 mM
